Measured values from US5554653A, “Inhibitors of HIV protease useful for the treatment of AIDS” (Eli Lilly and Company, priority 1992, dated 1996).
In brackets after ≈: the same amount, converted by molar mass.

Biological target: T1, HIV-1 protease (Human immunodeficiency virus type 1 group M subtype B, UniProt P04585)
T1 construct: Purified HIV-1 protease was obtained as described above; made in house; host or cells: E. coli K12 L507/pHP10D (NRRL B-18560)
Assay: biochemical
Type: biochemical
Settings: for IC50: read-out: Fluorescence Assay IC50 (converted)
Method: C. Preparation of Protease Fraction
A culture of E. coli K12 L507/pHP10D was grown to mid-log phase at 32° C. in LB media containing 12.5 μg/ml tetracycline. The cultivation temperature was quickly elevated to 40° C. to induce gene expression, and the cells were allowed to grow for 2.5 hours at this temperature before the culture was quickly chilled on ice. The cells were centrifuged and the cell pellet was resuspended in 20 mL 50 mmol MES buffer (pH 6.0) containing 1 mmol EDTA, 1 mmol DTT, 1 mmol PMSF and 10% glycerol ("Buffer A"). Cells were lysed by sonication using a Fischer Model 300 Dismembrator and a microtip probe. Following centrifugation at 27,000×g, the supernatant was diluted to a total volume of 60 mL with Buffer A and loaded onto a 2.0×19 cm QAE-Sepharose column (1 mL/min, 4° C.), that had been equilibrated in Buffer A. The column was washed isocratically for 180 min and then eluted with a gradient eluent of 0-1.0M sodium chloride in Buffer A over 120 min. Enzymatic activity was measured by HPLC using the synthetic peptide SQNYPIV as described in Margolin et al., Biochem. Biophys. Res. Commun., 167, 554-560 (1990); the production of the p1 peptide (SQNY) was measured.
The active fractions were combined, made 1.2M in ammonium sulfate, and applied to a 2.0×18 cm hexyl agarose column that had been equilibrated in Buffer A containing 1.2M ammonium sulfate. The sample was loaded at a flow rate of 1 mL/min at 4° C., washed with the equilibration buffer for 240 min (1 mL/min) and then eluted using a reverse linear gradient of 1.2-0M ammonium sulfate in Buffer A for 120 min at the same flow rate. The column was then washed isocratically in Buffer A for 120 min.
The active fractions were combined, concentrated to 10 mL using an Amicon stirred cell with a YM-10 membrane and then applied to a MonoS cation exchange column (1.0×10 cm) that had been equilibrated in Buffer A. The sample was loaded at a flow rate of 1 mL/min at 25° C. After washing isocratically for 30 min, the protease was eluted using a linear gradient of 0-0.45M sodium chloride in Buffer A over 40 min. The column was washed isocratically in Buffer A containing 0.45M sodium chloride for 30 min.
The active fractions were combined and concentrated to 200 μL using an Amicon stirred cell and a YM-10 membrane and then the protease was applied to a Superose 6 size exclusion column equilibrated in Buffer A containing 0.1M sodium chloride.
The purified peptide was labeled with a fluorescent marker at the C-terminal end for use in the Pandex assay. N^α -Biotin-[…]OH SEQ ID NO:3. (1.206 g, 0.936 mmol) was dissolved in 100 mL of 0.1M sodium borate, pH 9.5. Then, a solution of 3 g (7.7 mmol) of fluorescein isothiocyanate in 15 mL dimethyl sulfoxide was added to the reaction mixture in 10 equal portions over two hours. The resulting mixture was allowed to react for one hour after the final addition. The solution was adjusted to pH 3 using 5N hydrochloric acid, resulting in the formation of a precipitate which was removed by centrifugation.
E. Fluorescence HIV-1 Protease Inhibitor Assay
The following buffers and solutions are used in the Fluorescence HIV-1 Protease Inhibitor Assay:
MES-ALB Buffer: 0.05M 4-morpholineethane
Avidin Coated 0.1% solution of Fluoricon
Beads Solution: Avidin Assay Particles
(Avidin conjugated to solid
polystyrene beads, 0.6-0.8
microns in diameter in TBSA
27 IU/mL of purified HIV-1
protease in MES-ALB buffer
(1 IU equals the amount of
enzyme required to hydrolyze
1 μmole of substrate per
To each well of a round bottom, 96-well plate is added 20 μL of the Enzyme Solution followed by 10 μL of the compound to be evaluated in a 20% aqueous dimethylsulfoxide solution. Purified HIV-1 protease was obtained as described above.

IC50 [nM] | SMILES | also measured
3.75 | CC(=O)N[C@H](CSc1ccc2ccccc2n1)C(=O)N[C@@H](Cc1ccccc1)[C@H](O)Cc1ccccc1C(=O)NC(C)(C)C [Example 24A, [2R-(2R*,3S*,6S*)]-N-t-Butyl-2-[2-hydroxy-3-phenylmethyl-4-aza-5-oxo-6-N(ethanoyl)amino-7-quinolin-2-ylthio]heptyl benzamide] | 
0.207 | CC(=O)N[C@H](C[S+]([O-])c1ccc2ccccc2n1)C(=O)N[C@@H](Cc1ccccc1)[C@H](O)Cc1ccccc1C(=O)NC(C)(C)C (stereo partly drawn) [Example 24B, [2R-(2R*,3S*,6S*)]-N-t-Butyl-2-[2-hydroxy-3-phenylmethyl-4-aza-5-oxo-6-N(ethanoyl)amino-7-quinolin-2-ylsulfinyl]heptyl benzamide] | 
0.248 | CC(=O)N[C@H](CS(=O)(=O)c1ccc2ccccc2n1)C(=O)N[C@@H](Cc1ccccc1)[C@H](O)Cc1ccccc1C(=O)NC(C)(C)C [Example 24C, [2R-(2R*,3S*,6S*)]-N-t-Butyl-2-[2-hydroxy-3-phenylmethyl-4-aza-5-oxo-6-N(ethanoyl)amino-7-quinolin-2-ylsulfonyl]heptyl benzamide] | 
371 | CC(C)(C)NC(=O)c1ccccc1C[C@@H](O)[C@H](Cc1ccccc1)NC(=O)[C@H](CC(N)=O)NS(=O)(=O)c1ccccn1 [Example 29C, [2R-(2R*,3S*,6S*)]-N-t-Butyl-2-[2-hydroxy-3-phenylmethyl-4-aza-5-oxo-6-N(pyrid-2-ylsulfonyl)amino-7-carbamoyl]heptyl benzamide] | 
5330 | CC(C)(C)NC(=O)c1ccccc1C[C@@H](O)[C@H](Cc1ccccc1)NC(=O)[C@H](N)CSc1ccc(F)cc1 [Example 37B, [2R-(2R*,3S*,6S*)]-N-t-Butyl-2-[2-hydroxy-3-phenylmethyl-4-aza-5-oxo-6-amino-7-(p-fluorophenylthio)]heptyl benzamide] | 
1.79 | CC(C)(C)NC(=O)c1ccccc1C[C@@H](O)[C@H](Cc1ccccc1)NC(=O)[C@@H](CSc1ccc(F)cc1)NS(C)(=O)=O [Example 37C, [2R-(2R*,3S*,6S*)]-N-t-Butyl-2-[2-hydroxy-3-phenylmethyl-4-aza-5-oxo-6-N(methylsulfonyl)amino-7-(p-fluorophenylthio)]heptyl benzamide] | 
0.158 | CC(C)(C)NC(=O)c1ccccc1C[C@@H](O)[C@H](Cc1ccccc1)NC(=O)[C@@H](C[S+]([O-])c1ccc(F)cc1)NS(C)(=O)=O (stereo partly drawn) [Example 37D, [2R-(2R*,3S*,6S*)]-N-t-Butyl-2-[2-hydroxy-3-phenylmethyl-4-aza-5-oxo-6-N(methylsulfonyl)amino-7-(p-fluorophenylsulfinyl)]heptyl benzamide] | 
14.6 | Cn1nnnc1SC[C@@H](NS(C)(=O)=O)C(=O)N[C@@H](Cc1ccccc1)[C@H](O)Cc1ccccc1C(=O)NC(C)(C)C [Example 39C, [2R-(2R*,3S*,6S*)]-N-t-Butyl-2-[2-hydroxy-3-phenylmethyl-4-aza-5-oxo-6-N(methylsulfonyl)amino-7-N-(methyl)tetrazolylthio)]heptyl benzamide] | 
1.4 | Cn1nnnc1[S+]([O-])C[C@@H](NS(C)(=O)=O)C(=O)N[C@@H](Cc1ccccc1)[C@H](O)Cc1ccccc1C(=O)NC(C)(C)C (stereo partly drawn) [Example 39D, [2R-(2R*,3S*,6S*)]-N-t-Butyl-2-[2-hydroxy-3-phenylmethyl-4-aza-5-oxo-6-N(methylsulfonyl)amino-7-N-(methyl)tetrazolylsulfinyl)]heptyl benzamide] | 

The remaining lines, values behind:

SMILES | IC50 [nM] | also measured
CC(=O)N[C@H](Cc1c[nH]c2ccccc12)C(=O)N[C@@H](Cc1ccccc1)[C@H](O)Cc1ccccc1C(=O)NC(C)(C)C [Example 25, [2R-(2R*,3S*,6R*)]-N-t-Butyl-2-[2-hydroxy-3-phenylmethyl-4-aza-5-oxo-6-N-(ethanoyl)amino-7-indol-3-yl]heptyl benzamide] | > 1760 | 
CC(=O)N[C@H](Cc1ccccc1)C(=O)N[C@@H](Cc1ccccc1)[C@H](O)Cc1ccccc1C(=O)NC(C)(C)C [Example 26, [2R-(2R*,3S*,6R*)]-N-t-Butyl-2-[2-hydroxy-3-phenylmethyl-4-aza-5-oxo-6-N-(ethanoyl)amino-7-phenyl]heptyl benzamide] |  | IC45 (read-out: Fluorescence Assay IC45): 1 µg/mL (≈ 1.89 µM)
CC(C)(C)NC(=O)c1ccccc1C[C@@H](O)[C@H](Cc1ccccc1)NC(=O)[C@H](CC(N)=O)NS(=O)(=O)c1cccc2cccnc12 [Example 30, [2R-(2R*,3S*,6S*)]-N-t-Butyl-2-[2-hydroxy-3-phenylmethyl-4-aza-5-oxo-6-N(quinolin-8-ylsulfonyl)amino-7-carbamoyl]heptyl benzamide] | 18.6 | 
CC(C)(C)NC(=O)c1ccccc1C[C@@H](O)[C@H](Cc1ccccc1)NC(=O)[C@H](CC(=O)OCc1ccccc1)NC(=O)OC(C)(C)C [Example 31A, [2R-(2R*,3S*,6S*)]-N-t-Butyl-2-[2-hydroxy-3-phenylmethyl-4-aza-5-oxo-6-N(t-butoxycarbonyl)amino-7-benzyloxycarbonyl]heptyl benzamide] |  | IC8 (read-out: Fluorescence Assay IC8): 1 µg/mL
CC(C)(C)NC(=O)c1ccccc1C[C@@H](O)[C@H](Cc1ccccc1)NC(=O)[C@H](CC(=O)OCc1ccccc1)NS(C)(=O)=O [Example 31C, [2R-(2R*,3S*,6S*)]-N-t-Butyl-2-[2-hydroxy-3-phenylmethyl-4-aza-5-oxo-6-N(methylsulfonyl)amino-7-benzyloxycarbonyl]heptyl benzamide] |  | IC30 (read-out: Fluorescence Assay IC30): 1 µg/mL (≈ 1.6 µM)
CC(=O)N[C@@H](CSCc1ccccc1)C(=O)N[C@@H](Cc1ccccc1)[C@H](O)Cc1ccccc1C(=O)NC(C)(C)C [Example 32, [2R-(2R*,3S*,6R*)]-N-t-Butyl-2-[2-hydroxy-3-phenylmethyl-4-aza-5-oxo-6-N-(ethanoyl)amino-7-benzylthio]heptyl benzamide] |  | IC12 (read-out: Fluorescence Assay IC12): 1 µg/mL
CC(C)(C)NC(=O)c1ccccc1C[C@@H](O)[C@H](Cc1ccccc1)NC(=O)[C@H](CC(N)=O)NS(=O)(=O)c1cccc2ccccc12 [Example 33, [2R-(2R*,3S*,6S*)]-N-t-Butyl-2-[2-hydroxy-3-phenylmethyl-4-aza-5-oxo-6-N (naphth-1-ylsulfonyl)amino-7-carbamoyl]heptyl benzamide] | 68.2 | 
CC(C)(C)NC(=O)c1ccccc1C[C@@H](O)[C@H](Cc1ccccc1)NC(=O)[C@H](CC(N)=O)NS(=O)(=O)c1ccc2ccccc2c1 [Example 34, [2R-(2R*,3S*,6S*)]-N-t-Butyl-2-[2-hydroxy-3-phenylmethyl-4-aza-5-oxo-6-N (naphth-2-ylsulfonyl)amino-7-carbamoyl]heptyl benzamide] | 2.02 | 
CC(C)(C)NC(=O)c1ccccc1C[C@@H](O)[C@H](Cc1ccccc1)NC(=O)[C@H](CC(N)=O)NS(=O)(=O)CCc1cccc2ccccc12 [Example 35, [2R-(2R*,3S*,6S*)]-N-t-Butyl-2-[2-hydroxy-3-phenylmethyl-4-aza-5-oxo-6-N (naphth-1-ylethylsulfonyl)amino-7-carbamoyl]heptyl benzamide] | 1.04 | 
CC(C)(C)NC(=O)c1ccccc1C[C@@H](O)[C@H](Cc1ccccc1)NC(=O)[C@@H](CSc1ccc(F)cc1)NC(=O)OC(C)(C)C [Example 37A, [2R-(2R*,3S*,6S*)]-N-t-Butyl-2-[2-hydroxy-3-phenylmethyl-4-aza-5-oxo-6-N(t-butoxycarbonyl)amino-7-(p-fluorophenylthio)]heptyl benzamide] | > 1570 | 
Cn1nnnc1SC[C@@H](NC(=O)OC(C)(C)C)C(=O)N[C@@H](Cc1ccccc1)[C@H](O)Cc1ccccc1C(=O)NC(C)(C)C [Example 39A, [2R-(2R*,3S*,6S*)]-N-t-Butyl-2-[2-hydroxy-3-phenylmethyl-4-aza-5-oxo-6-N(t-butoxycarbonyl)amino-7-N-(methyl)tetrazolylthio]heptyl benzamide] | > 1600 | 
